# According to US7977354B2, “Heterocyclic compounds, their preparation and their use as medicaments, in particular as anti-alzheimer agents” (priority 2005, dated 2011):
# Like-named read-outs stand apart in the source and are kept apart here.
# Assays:
# [1] = target: T1, human acetylcholinesterase (Homo sapiens, UniProt P22303); assay: biochemical; type: biochemical; details: for Inhibition of human acetylcholinesterase (apparent IC50), result in words: tested until solubility limit
# T1 construct: human erythrocyte membranes as a AChE source; from tissue; host or cells: human erythrocyte membranes
# muscarinic receptors = assay: Muscarinic receptors binding, radioligand [3H]-N-methylscopolamine, rat striatal membranes; details: at 10^−5 M
# Procedure: The ability of prodrugs of formula G and/or inhibitors of formula G+ to nonselectively bind muscarinic receptors was evaluated with conventional radioligand binding method.
# The ability of bio precursors and/or inhibitors to nonselectively bind muscarinic receptors was evaluated with conventional radioligand binding method.
# The assay mixture (PBS Buffer, 300 μL), rat striatal membranes as a muscarinic receptors source (1 g/L, 100 μL), unknown compound at various concentrations (50 μL) and ^3H—N-methylscopolamine as specific radioligand of muscarinic receptors. The 60.0 minutes incubation time at room temperature was selected after preliminary experiments performed to ensure that the equilibrium between studied ligand and radioligand on muscarinic receptors is reached. The reaction was stopped by rapid vacuum filtration through Whatman GF/C filter paper (pre-soaked in a solution of polyethylenimine (0.1%) to reduce binding to filters). Filters were subsequently washed with ice-cold buffer (PBS Buffer, 3×1.5 mL) and placed overnight in 3 mL of Ready-Safe scintillation cocktail (Beckman Coulter, Inc.). Radioactivity was measured using a Wallac liquid scintillation counter. Each experiment was carried out twice in duplicate.
# Swiss albinos mice = assay: Acute toxicity in mice; type: in vivo; details: female and male Swiss albinos mice, intraperitoneal injection; compound 67 tested under its inclusion form as compound 82
# Procedure: The Acute toxicity studies were carried out using female and male Swiss albinos mice (25-35 g). Most of the compounds show a very low toxicity, namely with a DL50 higher than 10 mg/kg. […] The pharmacokinetic study was carried out using female and male Swiss albinos mice for the determination of half-life and distribution volume of a compound of the invention
# The toxicity studies were carried out using female and male Swiss albinos mice (25-35 g). Animals were kept in a temperature-controlled environment (23±2° C.) with a 12 h light-dark cycle and food and water were freely available. The animals were divided into one control group and five treated groups, each group consisting of six animals. The control group received saline and each treated group received the studied ligand in a dose of 1, 3, 10, 30 and 100 mg/kg by intraperitoneal injection. The animals were observed continuously for 3 h, and then they were observed each hour during 72 h after administering the compound in order to observe any changes in general behaviour or other physiological activities. At the end of the experiment, animals were sacrificed by cervical displacement.
# [2] = Pharmacokinetic: half-life and distribution volume in mice, plasma HPLC; details: both, Swiss albino, mouse, in vivo, ip, 10 mg/kg
# [3] = human erythrocyte membranes, acetylthiocholine iodide, pH 7.4, 10 min, room temperature, read-out: Inhibition of human acetylcholinesterase (apparent IC50)
# T1 sequence (P22303 32-617 isoform P22303-2 limits assumed): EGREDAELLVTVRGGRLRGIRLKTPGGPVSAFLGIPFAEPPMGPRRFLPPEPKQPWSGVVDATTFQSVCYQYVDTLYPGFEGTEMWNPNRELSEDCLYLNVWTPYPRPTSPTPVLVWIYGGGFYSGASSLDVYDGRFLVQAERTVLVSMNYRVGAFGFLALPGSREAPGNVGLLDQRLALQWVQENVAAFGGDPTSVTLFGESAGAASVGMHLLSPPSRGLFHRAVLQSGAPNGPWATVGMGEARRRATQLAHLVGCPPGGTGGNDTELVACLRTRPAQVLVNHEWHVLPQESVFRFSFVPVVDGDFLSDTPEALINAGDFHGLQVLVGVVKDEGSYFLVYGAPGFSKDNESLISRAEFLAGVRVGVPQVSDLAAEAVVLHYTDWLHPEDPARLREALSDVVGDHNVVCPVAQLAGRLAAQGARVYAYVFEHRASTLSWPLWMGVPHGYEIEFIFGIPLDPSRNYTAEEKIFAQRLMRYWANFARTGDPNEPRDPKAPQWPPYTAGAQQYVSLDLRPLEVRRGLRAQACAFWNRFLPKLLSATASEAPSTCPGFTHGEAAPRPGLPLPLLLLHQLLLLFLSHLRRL
SMILES,"IC50 [1, 3]",Displacement of [^3H] N-methylscopolamine from muscarinic receptors (muscarinic receptors),"Inhibition of human acetylcholinesterase (apparent IC50), result in words ([1]; human erythrocyte membranes)",other results
"CCOC(=O)c1cc2ccc(OC(=O)N(C)C)cc2[n+](C)c1 [Compound 1D, ethyl 1-methyl-7-(N,N-dimethylcarbamate)quinolinium-3-carboxylate triflate]",500 nM,0% at 10^−5 M,–,–
"CCOC(=O)c1cc2c(OC(=O)N(C)C)cccc2[n+](C)c1 [Compound 2E, Ethyl 5-(N,N-dimethylcarbamate)-1-methylquinolinium-3-carboxylate triflate]",7 nM,0% at 10^−5 M,–,–
"COC(=O)c1cc2c(OC(=O)N(C)C)cccc2[n+](C)c1 [Compound 67E, Methyl 5-(N,N-dimethylcarbamate)-1-methylquinolinium-3-carboxylate triflate]",–,0% at 10^−5 M,–,IC50 [1]: 110 nM
"CNC(=O)c1cc2c(OC(=O)N(C)C)cccc2[n+](C)c1 [Compound 68D, 5-(N,N-dimethylcarbamate)-1-methyl-3-(N-methylcarboxamido)quinolinium triflate]",29 nM,0% à 10^−5 M,–,–
"CN(C)C(=O)Oc1cccc2c1cc(C(=O)N(C)C)c[n+]2C [Compound 69D, 5-(N,N-dimethylcarbamate)-3-(N,N-dimethylcarboxamido)-1-methylquinolinium triflate]",15 nM,0% à 10^−5 M,–,–
"CN(C)C(=O)Oc1cccc2c1cc(C(=O)N1CCOCC1)c[n+]2C [Compound 70D, 5-(N,N-dimethylcarbamate)-1-methyl-3-(morpholinocarboxy)quinolinium triflate]",860 nM,0% à 10^−5 M,–,–
"CCNC(=O)Oc1cccc2c1cc(C(=O)OC)c[n+]2C [Compound 76B, Methyl 5-(N-ethylcarbamate)-1-methylquinolinium-3-carboxylate triflate]",6000 nM,–,–,–
"CCCNC(=O)c1cc2ccc(OC(=O)N(C)C)cc2[n+](C)c1 [Compound 78C, 7-(N,N-dimethylcarbamate)-3-(N-propylcarboxamido)-1-methylquinolinium triflate]",50000 nM,20% at 10^−5 M,–,–
"CCOC(=O)C1=CN(C)c2cc(OC(=O)N(C)C)ccc2C1 [Example 1, ethyl 1-methyl-7-(N,N-dimethylcarbamate)-1,4-dihydroquinoline-3-carboxylate]",–,0% at 10^−5 M,No inhibition until,–
"CCOC(=O)C1=CN(C)c2cccc(OC(=O)N(C)C)c2C1 [Example 2, ethyl 1-methyl-5-(N,N-dimethylcarbamate)-1,4-dihydroquinoline-3-carboxylate]",–,0% at 10^−5 M,No inhibition until,–
"COC(=O)C1=CN(C)c2cccc(OC(=O)N(C)C)c2C1 [Example 67, methyl 5-(N,N-dimethylcarbamate)-1-methyl-1,4-dihydroquinoline-3-carboxylate]",–,0% at 10^−5 M,No inhibition until,"Acute toxicity (DL50) (Swiss albinos mice): 25 mg/kg; C0 [2]: 806 nM; half-life ([2]; Plasmatic half-life time T1/2, mice, intraperitoneal injection of 10 mg/kg of compound 67 under its inclusion form (example 82)): 14 min"
"CNC(=O)C1=CN(C)c2cccc(OC(=O)N(C)C)c2C1 [Example 68, 5-(N,N-dimethylcarbamate)-1-methyl-3-(N-methylcarboxamido)-1,4-dihydroquinoline]",–,0% at 10^−5 M,No inhibition until,–
"CN(C)C(=O)Oc1cccc2c1CC(C(=O)N1CCOCC1)=CN2C [Example 70, morpholine 4-[5-(N,N-dimethylcarbamate)-1-methyl-1,4-dihydroquinolyl-3-carbonyl]]",–,0% à 10^−5 M,No inhibition until,–
"CN(C)C(=O)Oc1cccc2c[n+](C)ccc12 [Example 71, 5-(N,N-dimethylcarbamate)-2-methylisoquinolinium triflate]",50 nM,–,–,–
"CN(C)C(=O)Oc1ccc2cc[n+](C)cc2c1 [Example 72, 7-(N,N-Dimethylcarbamate)-2-Methylisoquinolinium Triflate]",5000 nM,–,–,–
"COC(=O)c1cc2c(OC(=O)N(C)C)cc(OC(=O)N(C)C)cc2[n+](C)c1 [Example 73, Methyl 5,7-Bis(N,N-Dimethylcarbamate)-1-Methylquinolinium-3-Carboxylate Triflate]",> 10000 nM,–,–,–
"COC(=O)c1cc2cccc(OC(=O)N(C)C)c2[n+](C)c1 [Example 74, Methyl 8-(N,N-Dimethylcarbamate)-1-Methylquinolinium-3-Carboxylate Triflate]",1400 nM,–,–,–
"CN(C)C(=S)Oc1cccc2c[n+](C)ccc12 [Example 75, 2-Methyl-5-(N,N-Dimethylthiocarbamate)-O-Isoquinolinium Triflate]",> 10000 nM,–,–,–
"CCNC(=O)Oc1cccc2c1CC(C(=O)OC)=CN2C [Example 76, Methyl 1-Methyl-5-(N-Ethylcarbamate)-1,4-Dihydroquinoline-3-Carboxylate]",–,–,No inhibition until,–
"CCOC(=O)c1cc2cccc(OC(=O)N(C)C)c2[n+](C)c1 [Example 77, Ethyl 1-Methyl-8-(N,N-Dimethylcarbamate)Quinolinium-3-Carboxylate Triflate]",8000 nM,–,–,–
"CCCNC(=O)C1=CN(C)c2cc(OC(=O)N(C)C)ccc2C1 [Example 78, 1-Methyl-3-(N-Propylcarboxamido)-7-(N,N-Dimethylcarbamate)-1,4-Dihydroquinoline]",–,25% at 10^−5 M,No inhibition until,–
CCOC(=O)c1ccc[n+](Cc2ccc(OC(=O)N(C)C)cc2)c1 [Example 80],227 nM,–,–,–
